{"source": "patent US6511976B1", "about": "“Halogen substituted tetracyclic tetrahydrofuran derivatives” (Jannsen Pharmaceutica, N.V., priority 1997, dated 2003)", "key": {"[1]": {"conditions": "dose of 300 mg/kg; cited from earlier work"}, "[2]": {"tested_on": "dopamine (symptoms elicited with the dopamine agonist apomorphine)", "assay": "ATN Test in Rats: apomorphine interaction", "type": "in vivo", "conditions": "observed at 30 minutes following subcutaneous administration", "text": "(§1) The antipsychotic activity of the subject compounds is evidenced by the experimental data obtained in the combined apomorphine (APO), tryptamine (TRY) and norepinephrine (NOR) test in rats. Said combined apomorphine, tryptamine and norepinephrine test is described in Arch. Int. Pharmacodyn., 227, 238-253 (1977) and provides an empirical evaluation of the relative specificity with which drugs may effect particular neurotransmitter systems centrally (CNS) as well as peripherally. […] The favourable pharmacological property of the present compounds compared to the compounds specifically disclosed in WO 97/38991 lies in their ability to antagonize the central symptoms elicited by apomorphine and tryptamine."}, "[3]": {"tested_on": "serotonin (central symptoms elicited with the serotonin agonist tryptamine)", "assay": "ATN Test in Rats: tryptamine interaction", "type": "in vivo", "conditions": "observed at 90 minutes following subcutaneous administration", "text": "as §1"}, "mCPP induced effects": {"tested_on": "mCPP induced effects", "assay": "mCPP Test on Rats (pre-test time T of 1 hour)", "type": "in vivo", "conditions": "test compound at pre-test time T of 1 hour; 1 mg/kg mCPP intravenously 15 minutes prior to test; Open Field Test", "experimental": "Rats were treated with the test compound at a varying dose at a pre-test time T of 1 hour and with 1 mg/kg mCPP (metachlorophenylpiperazine), injected intravenously, 15 minutes prior to the test. After pre-test time T elapsed, treated rats were submitted to the “Open Field Test on Rats” as described in Drug Dev. Res. 18, 119-144 (1989), but using an infra-red light source instead of a Kleverlux® (12V/20W) light source. […] Compound numbers 2 and 8 through 16 were active at a test dose of 2.5 mg/kg or lower. Other compounds were either not tested or were active at a higher dose."}}, "data": [{"smiles": "CNCC1CC2c3ccccc3Cc3ccccc3C2O1.O=C(O)C(=O)O", "note": "(racemic) [(±)-3,3a,8,12b-tetrahydro-N-methyl-2H-dibenzo[3,4:6,7]-cyclohepta-[1,2-b]furan-2-methanamine oxalic acid]", "values": [{"measurement": "activity as antidepressant", "setting": "[1]", "value": "inactive"}]}, {"smiles": "CN(C)CC1CC2c3ccccc3Cc3ccccc3C2O1", "note": "(single isomer, unassigned) [a]", "values": [{"measurement": "ED50, apomorphine interaction: antagonism of agitation and stereotypy", "setting": "[2]", "value": ">10", "unit": "mg/kg"}, {"measurement": "ED50, tryptamine interaction: antagonism of backward locomotion", "setting": "[3]", "value": 10, "unit": "mg/kg"}, {"measurement": "ED50, tryptamine interaction: antagonism of bilateral clonic convulsions", "setting": "[3]", "value": "≧10 mg/kg"}]}, {"smiles": "CN(C)CC1CC2c3ccccc3Cc3ccccc3C2O1", "note": "(single isomer, unassigned) [c]", "values": [{"measurement": "ED50, apomorphine interaction: antagonism of agitation and stereotypy", "setting": "[2]", "value": ">10", "unit": "mg/kg"}, {"measurement": "ED50, tryptamine interaction: antagonism of backward locomotion", "setting": "[3]", "value": 10, "unit": "mg/kg"}, {"measurement": "ED50, tryptamine interaction: antagonism of bilateral clonic convulsions", "setting": "[3]", "value": 1.25, "unit": "mg/kg"}]}, {"smiles": "CN(C)CC1CC2c3ccccc3Cc3ccc(F)cc3C2O1.O=C(O)C(O)C(O)C(=O)O", "note": "(stereo not drawn) [Compound 11, [B-(2α,3aβ,12bα)]-11-fluoro-3,3a,8,12b-tetrahydro-N,N-dimethyl-2H-dibenzo[3,4:6,7]cyclohepta[1,2-b]furan-2-methanamine (+)-[R-R*,R*)]-2,3-dihydroxybutanedioate (1:1)]", "values": [{"measurement": "ED50, apomorphine interaction: antagonism of agitation and stereotypy", "setting": "[2]", "value": 2.0, "unit": "mg/kg"}, {"measurement": "ED50, tryptamine interaction: antagonism of backward locomotion", "setting": "[3]", "value": 0.5, "unit": "mg/kg"}, {"measurement": "ED50, tryptamine interaction: antagonism of bilateral clonic convulsions", "setting": "[3]", "value": 0.4, "unit": "mg/kg"}]}, {"smiles": "CN(C)CC1CC2c3ccccc3Cc3ccccc3C2O1", "note": "(single isomer, unassigned) [d]", "values": [{"measurement": "ED50, apomorphine interaction: antagonism of agitation and stereotypy", "setting": "[2]", "value": 2.7, "unit": "mg/kg"}, {"measurement": "ED50, tryptamine interaction: antagonism of backward locomotion", "setting": "[3]", "value": 0.2, "unit": "mg/kg"}, {"measurement": "ED50, tryptamine interaction: antagonism of bilateral clonic convulsions", "setting": "[3]", "value": 0.15, "unit": "mg/kg"}]}, {"smiles": "CN(C)CC1CC2c3ccccc3Cc3ccccc3C2O1", "note": "(single isomer, unassigned) [b]", "values": [{"measurement": "ED50, apomorphine interaction: antagonism of agitation and stereotypy", "setting": "[2]", "value": ">10", "unit": "mg/kg"}, {"measurement": "ED50, tryptamine interaction: antagonism of backward locomotion", "setting": "[3]", "value": 1.3, "unit": "mg/kg"}, {"measurement": "ED50, tryptamine interaction: antagonism of bilateral clonic convulsions", "setting": "[3]", "value": 1.3, "unit": "mg/kg"}]}, {"smiles": "CN(C)CC1CC2c3ccccc3Cc3ccc(F)cc3C2O1.Cl", "note": "(racemic) [Compound 2, (±)-(2α,3aβ,12bα)-11-fluoro-3,3a,8,12b-tetrahydro N,N-dimethyl-2H-dibenzo[3,4:6,7]cyclohepta[1,2-b]furan-2-methanamine hydrochloride]", "values": [{"measurement": "active dose (40% or more of the tested rats showed suppression of the mCPP induced effects, mCPP-antagonism)", "setting": "mCPP induced effects", "value": "≤ 2.5", "unit": "mg/kg"}]}]}
